TGI and GI50 data for 19 molecules are collected here from PubChem BioAssay (NCI).

The structures appear in SMILES notation. Several values for one entry are separate records, joined by “and”; a condition that tells them apart may be missing. Equal values may be shown once.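 Test compounds were applied to cells in 96-well plates for 48 hours at 5 doses. Here, GI50 denotes the concentration required for 50% inhibition of growth. TGI: concentration producing complete growth inhibition.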

As usually defined, the TGI is the concentration at which net growth stops. Low readings indicate greater sensitivity of the cells, high ones lower sensitivity of the cells. For orientation: GI50 means the concentration that inhibits growth by half.

Among the test systems are M19-MEL melanoma; SNB-78 CNS; HOP-18 NSCLC; HS 578T breast; MCF7 breast; BT-549 breast; MDA-MB-231 breast; T-47D breast; NCI/ADR-RES ovarian.
What all share (assay): DTP human tumour cell line panel, 48 h

For the molecule `O=c1c2cc(Cl)ccc2sc2cccc(Cl)c12`, the TGI with M19-MEL melanoma and in the test on SNB-78 CNS was over 100 µM throughout.
With `Cc1cccc(C)c1NC(=O)C(=O)Nn1c(NN)nc2ccccc2c1=O`, the TGI in the test on HOP-18 NSCLC, in the test with M19-MEL melanoma and with SNB-78 CNS was over 100 µM throughout.
Turning to `N#CC1(C#N)C(C#N)(C#N)C12CCCCCC2`, the TGI with HOP-18 NSCLC came to 30.3 µM; in the test on M19-MEL melanoma, 47.9 µM; in the test on SNB-78 CNS it was 38.5 µM.
In the test on M19-MEL melanoma, `NC(N)=NS(=O)(=O)c1ccc(NCCc2c3ccccc3nc3ccccc23)cc1` gave a TGI of over 100 µM.
For `CC1OC(n2cc(F)c(=O)[nH]c2=O)C=CC1=O` (stereo not drawn), the TGI in the test with HOP-18 NSCLC stood at 34.1 µM; in the test on M19-MEL melanoma, 36.2 µM; in the test with SNB-78 CNS, 37.1 µM.
On to `O=C1C(=Cc2c(O)cc(O)cc2O)C(=O)c2ccccc21`, for which the TGI in the test on HOP-18 NSCLC was 58.7 µM; in the test with M19-MEL melanoma, over 53 µM; in the test on SNB-78 CNS, 62.1 µM.
As to `O=C(c1ccccc1)c1cn(/N=C\c2ccccc2)c(=O)nc1-c1ccccc1`, the TGI in the test with HOP-18 NSCLC, in the test with M19-MEL melanoma and in the test with SNB-78 CNS was over 100 µM throughout.
`C[N+]1=C(/C=C\C=C\c2ccccc2)C(C)(C)c2ccccc21`: the GI50 in the test on HS 578T breast is 4.6 µM; in the test on MCF7 breast, 2.48 µM; in the test on BT-549 breast it was 2.34 µM; in the test with MDA-MB-231 breast it was 2.36 µM; in the test with T-47D breast, 0.966 µM; in the test with NCI/ADR-RES ovarian, 9.45 µM. In addition, the TGI with HS 578T breast was found to be 22.4 µM; in the test with MCF7 breast, 11 µM; with BT-549 breast, 9.29 µM; in the test with MDA-MB-231 breast, 7.52 µM; in the test with T-47D breast it was 5.36 µM; in the test on NCI/ADR-RES ovarian it was 33.9 µM.
Regarding `COc1cc2c(cc1OC)/C(=C\c1ccccc1N)C(=O)OC2`, the TGI in the test on HOP-18 NSCLC is 26.8 µM; in the test with M19-MEL melanoma, 39.2 µM.
In the case of `Cn1cc(-c2ccc(-c3ccc(C4=NC5(CC5)C(=O)N4C[C@@H]4CCN(C(=O)C5CC5)C4)cc3)cc2)cn1`, the GI50 in the test on HS 578T breast is 19.2 µM; with MCF7 breast, 1.12 µM; in the test with BT-549 breast, 6.09 µM; in the test on MDA-MB-231 breast it was 11.2 µM; in the test on T-47D breast it was 13.6 µM; in the test with NCI/ADR-RES ovarian, 10.4 µM. The TGI is 84.1 µM in the test with HS 578T breast; over 100 µM in the test on MCF7 breast; 26.1 µM in the test on BT-549 breast; 37.3 µM in the test with MDA-MB-231 breast; over 100 µM with T-47D breast; over 100 µM with NCI/ADR-RES ovarian.
In the case of `Cc1cnc(C(=O)Nc2nc3ccc(S(=O)(=O)Nc4ccc(C5(C(F)(F)F)CC5)cc4)cc3[nH]2)cn1`, the GI50 is 0.367 µM in the test with HS 578T breast; 0.287 µM in the test with MCF7 breast; 0.965 µM in the test on BT-549 breast; 1.5 µM with MDA-MB-231 breast; 0.596 µM in the test on T-47D breast; 0.26 µM in the test on NCI/ADR-RES ovarian. For the same molecule, the TGI is 6.54 µM with HS 578T breast; 5.68 µM in the test with MCF7 breast; 12.7 µM in the test on BT-549 breast; 15.6 µM with MDA-MB-231 breast; 17.2 µM in the test on T-47D breast; 1.69 µM in the test with NCI/ADR-RES ovarian.
Turning to `Cc1ncc(C(=O)Nc2ccc(CN3CCN(C)CC3)c(C(F)(F)F)c2)cc1C#Cc1cnc(N)cc1C#N`, the GI50 was 0.204 µM with HS 578T breast; 1.69 µM in the test on MCF7 breast; 1.36 µM in the test on BT-549 breast; 0.222 µM in the test on MDA-MB-231 breast; over 16.7 µM in the test with T-47D breast; 2.12 µM with NCI/ADR-RES ovarian. For the same molecule, the TGI in the test on HS 578T breast is 1.72 µM; in the test on MCF7 breast, 4.48 µM; with BT-549 breast, 3.58 µM; in the test on MDA-MB-231 breast, 1.92 µM; in the test on T-47D breast, over 16.7 µM; in the test with NCI/ADR-RES ovarian it was 5.24 µM.
As to `Clc1ccc(C(n2cc(Br)cn2)n2cc(Br)cn2)cc1`, the TGI in the test on HOP-18 NSCLC worked out at 34.4 µM; in the test on M19-MEL melanoma it was 32.6 µM; in the test on SNB-78 CNS, 44.4 µM.
With `CC12CCC(Br)C(C)(C)C1CC=C1C(=O)OCC1O2` (stereo not drawn), the TGI came out at 55 µM in the test on HS 578T breast; 22.7 µM with MCF7 breast; 41 µM in the test with BT-549 breast; 31.5 µM in the test with MDA-MB-231 breast; 45 µM with T-47D breast; 56.9 µM with NCI/ADR-RES ovarian.
`COc1ccc2c(c1)C(=O)c1c-2n(CCCI)c(=O)c2cc([N+](=O)[O-])ccc12`: the GI50 in the test with HS 578T breast was 7.67 µM and 3.85 µM; in the test with MCF7 breast, 0.0105 µM and 0.0343 µM; in the test with BT-549 breast, 0.112 µM and 0.786 µM; with MDA-MB-231 breast, 12.9 µM and 22.9 µM; with T-47D breast, 0.173 µM and 0.163 µM; in the test on NCI/ADR-RES ovarian, 0.14 µM and 0.122 µM. In addition, the TGI with HS 578T breast was 31.2 µM and 35.3 µM; in the test with MDA-MB-231 breast it was 50 µM and > 100 µM; in the test on T-47D breast it was 1.65 µM and 8.64 µM.
With `CC(=O)OCc1cc2ccccc2nc1C(Br)(Br)Br`, the TGI was over 100 µM with HS 578T breast; 30.7 µM with MCF7 breast; 27.2 µM in the test on BT-549 breast; 44.9 µM in the test with MDA-MB-231 breast; over 100 µM in the test with T-47D breast; 44 µM with NCI/ADR-RES ovarian.
As to `O=C1C(Cl)=C(NCc2ccco2)C(=O)c2ccccc21`, the GI50 in the test on HS 578T breast is 3.2 µM; in the test with MCF7 breast, 2.39 µM; in the test on BT-549 breast, 22 µM; in the test on MDA-MB-231 breast, 18.4 µM; in the test on T-47D breast, 10.2 µM; in the test with NCI/ADR-RES ovarian, 31.2 µM. Also, the TGI was 10.1 µM with HS 578T breast; over 27.9 µM in the test with MCF7 breast; 50.7 µM with BT-549 breast; over 81.5 µM in the test with MDA-MB-231 breast; 73.7 µM with T-47D breast; over 100 µM in the test on NCI/ADR-RES ovarian.
With `N#C/C(=C\c1ccc(Br)cc1)n1nnc2ccc(F)cc21`, the GI50 in the test with HS 578T breast is 2.71 µM; with MCF7 breast, 0.372 µM; with BT-549 breast, 0.671 µM; in the test on MDA-MB-231 breast it was 1.87 µM; in the test on T-47D breast, 0.447 µM; in the test on NCI/ADR-RES ovarian, 0.34 µM. In addition, the TGI in the test with HS 578T breast was 20.4 µM; in the test with MCF7 breast, 2.85 µM; in the test on BT-549 breast, 3.63 µM; in the test on MDA-MB-231 breast it was 4.8 µM; in the test with T-47D breast it was 6.11 µM; in the test with NCI/ADR-RES ovarian it was 3.42 µM.
Regarding `CN(C)CCCNC(=O)c1cc(NC(=O)c2cc(NC(=O)CCNS(=O)(=O)c3ccc4c(c3)C(=O)c3ccccc3C4=O)cn2C)cn1C`, the GI50 in the test with HS 578T breast, in the test with MCF7 breast, with BT-549 breast, in the test with MDA-MB-231 breast, with T-47D breast and with NCI/ADR-RES ovarian was over 100 µM throughout. The TGI in the test on HS 578T breast, in the test with MCF7 breast, in the test with BT-549 breast, with MDA-MB-231 breast, with T-47D breast and in the test on NCI/ADR-RES ovarian was over 100 µM each time.
